Test results taken from article PMC8717895 (Neuro-oncology Advances, 2021).
Entries after “also recorded” stand apart in the source; their conditions may differ. Read-outs that look alike come from different tables or passages of the source.

Type: in vivo, human
Conditions: stratum B

CC1(COc2ccc3c(c2)ncn3-c2ccc3cccc(N4CCC(N)CC4)c3n2)COC1 [crenolanib]
DLTs attributable to crenolanib during the DLT observation period (dose level 3): grade 4 GGT, ALT, and AST elevations
DLTs attributable to crenolanib during the DLT observation period (dose level 4): grade 3 amylase, GGT, ALT, and AST elevations; also recorded: grade 3 GGT elevation
patients having grade 3/4 elevations of ALT, AST, GGT, or alkaline phosphatase (during and after the DLT period): 17%
Maximum tolerated dose (MTD) (once daily single agent, pediatric): 170 mg/m^2
Most common grade 3/4 toxicity (resolved with drug interruption): leukopenia
